# Measured values: US5929082A, “Potassium ion channel blockers” (priority 1995, dated 1999)
# Key:
# [1] = tested on: rat heart; conditions: 1 μM, rat heart stimulated at 5 Hz; Kantor et al, 1987; cited from earlier work
# [2] = Kinetic/metabolite studies: HPLC analysis of plasma after oral administration; assay type: in vivo, Sprague-Dawley rats; conditions: after oral administration, HPLC
# Protocol: Plasma samples were collected in order to test the correlation of plasma drug (or metabolite) concentration with hypoglycaemic activity, and to determine whether compounds of the invention were converted in vivo into active metabolites. The plasma levels of test compounds or metabolites also give an indication of rate of metabolism and kinetics of drug action.
# Blood samples collected from rats treated as above and collected at the same intervals were analysed using an ICI LC1150 HPLC system and a LC1210 UV detector at a wavelength of 227 nm. The HPLC system used a Merck LiChroCART 125-4 LiChrosphere 100 RP-18 HPLC and LiChrosphere 100 RP-18 guard columns. The mobile phase consisted of 70% acetonitrile and a 30% aqueous sodium phosphate buffer at pH 7.45 and was prepared using standard HPLC grade reagents and distilled water. To improve the resolution of peaks and separation of the compounds a gradient method was established where changes in the concentration of the required buffers and solvents, and the time at which these changes occur is outlined in Table 7. The volumes are expressed as percentages of the total flow rate, with the flow rate remaining constant at […].
# The data were acquired using the WinChrom Data Management system and were calibrated using stock solutions of the test compounds and Glibenclamide as an internal standard dissolved in 100% methanol
# Plasma (250 μL) collected from the rats were extracted into methanol (700 μL) and 50 μL of Glibenclamide (25 μg/ml). The mixture was then agitated with a vortex mixer for 15 sec and centrifuged for 10 min. The clear supernatant was then carefully aspirated for HPLC analysis.
# The results are outlined in Table 8 and show retention times (minutes) for the compounds and their metabolites as analysed by HPLC after oral administration in Sprague-Dawley rats. […] Glibenclamide is shown for comparison only, none of the metabolites observed with the test compounds correspond to metabolites of Glibenclamide.
# [3] = parameters: species or system Sprague-Dawley rats; conditions: rat, in vivo, po
# Protocol: Representative compounds were evaluated for their effect on glucose tolerance following oral administration at doses ranging from 0.005 mg/kg to 100 mg/kg. Normal male Sprague-Dawley rats were dosed with a test compound daily for five days, and were fasted overnight prior to days 1 and 5. Control animals were given ether vehicle only, or Glibenclamide (glyburide; N-[4-(β-)(2-methoxy-5-chlorobenzamido)ethyl)benzosulphonyl)-N'-cyclohexylurea]; 2 mg/kg/day). Blood was collected on day zero and on days one and five at 0, 0.5, 1, 1.5 and 2 hours after drug administration. Blood glucose concentrations were then measured in duplicate using standard glucose oxidase analysis. The samples were assayed using a Hitachi U-200 Spectrophotometer at a wavelength of 505 nm. The weight gain of each rat was also measured over the five day period, and all results were compared to both the negative control group (dosing with vehicle only) and the positive control group (dosing with Glibenclamide). […] Doses of drugs administered were minimised so as to reduce differences in weight gain whilst retaining hypoglycaemic activity. […]
# Each point represents the effect of each dose on the rats glucose tolerance or ability to gain weight, expressed as a percentage of the control (normal) response (where control=100% response). […]
# [4] = tested on: MCF-7 human mammary carcinoma cells; conditions: Woodfork et al, 1995, cited from earlier work
# [5] = Hypoglycaemic activity: change in blood glucose after oral gavage; assay type: in vivo, Sprague Dawley rats; conditions: 1.6 mg/kg oral gavage, normal fed male rats
# Protocol: The biological activity of representative compounds of the invention was evaluated by means of several different tests. The activity of compounds of this invention as hypoglycaemic agents was measured and compared with the activity of the known compound of Example 1, using methods described in the literature. Thus normal, fed male Sprague Dawley rats weighing between 275 and 375 g were studied for changes in blood sugar levels and alterations to mean arterial blood pressure following administration of representative compounds of the invention suspended in a 5% solution of gum acacia by oral gavage at a dose of 1.6 mg/kg. The concentration of each compound was 4 mg in 10 ml, so that each rat received 1.1-1.5 ml to obtain the desired dose on a body weight basis. The blood sugar levels were recorded for each rat immediately prior to administration, and at 1, 2, and 3 hr following administration of the test compounds. Blood glucose levels were determined on blood samples taken from the tail, and analysed on an Ames blood glucometer, model 5626, and Ames, 2627 blood glucose strips (number 2). […] It is apparent that generally the heterocyclic sulphonylthioureas have greater activity than the sulphonylureas. Without wishing to be bound by any proposed mechanism for the observed effect, we believe that this may be associated with differences in lipid permeability.
# [6] = tested on: MCF-7 human mammary carcinoma cells; conditions: concentration-dependent; Woodfork et al, 1995; read-out: IC50, inhibition of cell proliferation; cited from earlier work
# [7] = tested on: MCF-7 mammary carcinoma cells; experiment: Thymidine uptake ([methyl-3H] thymidine incorporation into DNA); assay type: cell-based, human; conditions: 100 μM (printed 100 μH / 100 mM), compared to control group; Glibenclamide n=3, Compound 1-24 n=4
# Protocol: Incorporation of [methyl-3H] thymidine into DNA was measured as described by Murphy and Lazarus (1983), using MCF-7 mammary carcinoma cells treated with compound 1-24 (100 μH) and a control group. The growth medium from cells cultured as described in Example 24 was aspirated from the wells, and 1 mL of fresh growth medium containing 1 μCi [3H]-thymidine (Amersham) was added to each well After 4 hours incubation, the medium was aspirated and the monolayers were washed three times with ice cold phosphate buffered saline (ICN). This was followed by three washes with 10% (v/v) ice cold trichloroacetic acid, each of 5 minutes duration. After another three washes with absolute ethanol at room temperature of 5 minutes duration, the monolayer was dried at room temperature for 10 minutes. The monolayer was […] after incubation for 12 hours with 0.5 N NaOH and 1% Triton-X 100 (Sigma). An aliquot of the cell lysate was added to 10 ml of Ultima Gold (Packard) and counted using a liquid scintillation counter (Packard model 19006A).
smiles,measurement,setting,value
"COc1ccc(Cl)cc1C(=O)NCCc1ccc(S(=O)(=O)NC(=O)NC2CCCCC2)cc1 [Glibenclamide, reference compound]",effect on ischaemia-induced ventricular arrhythmias / K+ loss,[1],prevent or reduce ischaemia-induced ventricular arrhythmias
same,Compound in plasma,[2],no
same,weight gain over a five day period,[3],decreased their observed weight gain
same,accumulation at the G0/G1 phase in cell cycle distribution,[4],statistically significant accumulation at the G0/G1 phase
same,cell-cycle arrest,[4]; inhibition of KATP channels,reversible cell-cycle arrest
same,"Change in Blood Glucose, 0 hours",[5]; 0 hours,0.0 mmol/L
same,"Change in Blood Glucose, 1 Hour",[5]; 1 hour,0.6 mmol/L
same,"Change in Blood Glucose, 2 Hours",[5]; 2 hours,-2.1 mmol/L
same,"Change in Blood Glucose, 3 Hours",[5]; 3 hours,-2.4 mmol/L
same,IC50,[6],50 µM
same,inhibition of thymidine uptake,[7],significant inhibition
